We go through 22 compounds from PubChem BioAssay AID256 (DTP/NCI, 2004).

The test system of the assay is CD2F1 mice, L1210 leukemia ip, survival T/C. Put plainly: NCI In Vivo Anticancer Drug Screen. Data for tumor model L1210 Leukemia (intraperitoneal) in CD2F1 (CDF1) mice. The following applies: higher = longer survival. An outline of the steps:
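Implant tumor; dose compound or vehicle; measure endpoint in both groups; report treated divided by control.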

[1] abbreviates: endpoint: mean survival time, dose: 100.0 mg/kg/injection, schedule: Q01DX009 (ip), vehicle: saline with Tween-80.
Where [2] appears, read: endpoint: mean survival time, dose: 200.0 mg/kg/injection, schedule: Q01DX009 (ip), vehicle: saline with Tween-80.
Setting [3] is: endpoint: mean survival time, dose: 400.0 mg/kg/injection, schedule: Q01DX009 (ip), vehicle: saline with Tween-80.
Setting [4] is: endpoint: mean survival time, dose: 100.0 mg/kg/injection, schedule: Q04DX003 (ip), vehicle: saline with Tween-80.
Where [5] appears, read: endpoint: mean survival time, dose: 200.0 mg/kg/injection, schedule: Q04DX003 (ip), vehicle: saline with Tween-80.
Setting [6] is: endpoint: mean survival time, dose: 400.0 mg/kg/injection, schedule: Q04DX003 (ip), vehicle: saline with Tween-80.
Setting [7] is: endpoint: mean survival time, dose: 50.0 mg/kg/injection, schedule: Q04DX002 (ip), vehicle: saline with Tween-80.
[8] abbreviates: endpoint: mean survival time, dose: 100.0 mg/kg/injection, schedule: Q04DX002 (ip), vehicle: saline with Tween-80.
[9] abbreviates: endpoint: mean survival time, dose: 200.0 mg/kg/injection, schedule: Q04DX002 (ip), vehicle: saline with Tween-80.

Several values for one entry are separate records, joined by “and”; a condition that tells them apart may be missing. Identical values can stand only once. Inconclusive results and toxic doses are left out.

As for `CC1=NCCc2c1cc1c([nH]c3ccccc31)c2C`, the T/C (endpoint: mean survival time, dose: 44.0 mg/kg/injection, schedule: Q01DX009 (ip), vehicle: saline with Tween-80) was 114 % of control and the T/C (endpoint: mean survival time, dose: 67.0 mg/kg/injection, schedule: Q01DX009 (ip), vehicle: saline with Tween-80) was 96 % of control.

For the compound `CC1=NN(c2cc(Cl)c(S(=O)(=O)O)cc2Cl)C(=O)C1`, the T/C was 92 % of control under setting [1], 92 % of control under setting [2] and 86 % of control under setting [3].

For the compound `CC(C)C1OCC(C)(C)C(C)O1` (stereo unspecified), the T/C (endpoint: mean survival time, dose: 50.0 mg/kg/injection, schedule: Q04DX002 (ip), vehicle: saline) was 96 % of control; the T/C (endpoint: mean survival time, dose: 100.0 mg/kg/injection, schedule: Q04DX002 (ip), vehicle: saline) was 96 % of control; the T/C (endpoint: mean survival time, dose: 200.0 mg/kg/injection, schedule: Q04DX002 (ip), vehicle: saline) is 93 % of control.

As for `NCc1cccc(-c2nc3ncnc(N)c3[nH]2)c1`, the T/C was 101 % of control (endpoint: mean survival time, dose: 50.0 mg/kg/injection, schedule: Q01DX009 (ip), vehicle: saline) and 105 % of control (endpoint: mean survival time, dose: 100.0 mg/kg/injection, schedule: Q01DX009 (ip), vehicle: saline).

In the case of `Cc1c(O)ccc([N+](=O)[O-])c1O`, the T/C is 107 % of control (endpoint: mean survival time, dose: 12.5 mg/kg/injection, schedule: Q04DX003 (ip), vehicle: saline with Tween-80) and 102 % of control (endpoint: mean survival time, dose: 25.0 mg/kg/injection, schedule: Q04DX003 (ip), vehicle: saline with Tween-80).

Regarding `Cc1ccc(N=Nc2c(N)nc(N)nc2N)cc1C`, the T/C reads like this: under setting [4], 96 % of control; under setting [5], 102 % of control; under setting [6], 108 % of control.

On to `Cc1cn(C2CC(OS(C)(=O)=O)C(COC(c3ccccc3)(c3ccccc3)c3ccccc3)O2)c(=O)[nH]c1=O` (stereo unspecified), for which the T/C (endpoint: mean survival time, dose: 12.5 mg/kg/injection, schedule: Q01DX005 (ip), vehicle: other) is 95 % of control; the T/C (endpoint: mean survival time, dose: 25.0 mg/kg/injection, schedule: Q01DX005 (ip), vehicle: other) was 90 % of control; the T/C (endpoint: mean survival time, dose: 50.0 mg/kg/injection, schedule: Q01DX005 (ip), vehicle: other) is 91 % of control; the T/C (endpoint: mean survival time, dose: 200.0 mg/kg/injection, schedule: Q01DX005 (ip), vehicle: other) is 91 % of control.

On to `[CH3][Sn]([Br])([Br])[CH2]CCCBr`, for which the T/C reads like this: (endpoint: mean survival time, dose: 0.39 mg/kg/injection, schedule: Q01DX009 (ip), vehicle: saline) 90 % of control; (endpoint: mean survival time, dose: 0.78 mg/kg/injection, schedule: Q01DX009 (ip), vehicle: saline) 97 % of control; (endpoint: mean survival time, dose: 1.56 mg/kg/injection, schedule: Q01DX009 (ip), vehicle: saline) 97 % of control; (endpoint: mean survival time, dose: 6.25 mg/kg/injection, schedule: Q01DX009 (ip), vehicle: saline) 110 % of control.

Take `CCN(C)N=Nc1ccc(C(N)=O)cc1`: the T/C by setting is: (endpoint: mean survival time, dose: 18.75 mg/kg/injection, schedule: Q01DX009 (ip), vehicle: Klucel (hydroxypropylcellulose) (HPC)) 103 % of control; (endpoint: mean survival time, dose: 75.0 mg/kg/injection, schedule: Q01DX009 (ip), vehicle: Klucel (hydroxypropylcellulose) (HPC)) 156 % of control; (endpoint: mean survival time, dose: 100.0 mg/kg/injection, schedule: Q01DX009 (oral), vehicle: saline with Tween-80) 115 % of control; (endpoint: mean survival time, dose: 200.0 mg/kg/injection, schedule: Q01DX009 (oral), vehicle: saline with Tween-80) 120 % of control.

For the compound `O=C1Nc2ccccc2C1=O`, the T/C by setting is: (endpoint: mean survival time, dose: 100.0 mg/kg/injection, schedule: Q01DX001 (ip), vehicle: Klucel (hydroxypropylcellulose) (HPC)) 96 % of control; (endpoint: mean survival time, dose: 200.0 mg/kg/injection, schedule: Q01DX001 (ip), vehicle: Klucel (hydroxypropylcellulose) (HPC)) 102 % of control; (endpoint: mean survival time, dose: 400.0 mg/kg/injection, schedule: Q01DX001 (ip), vehicle: Klucel (hydroxypropylcellulose) (HPC)) 101 % of control.

As to `CCOC(=O)C(C(=O)OCC)C(=O)C(C)C`, the T/C under setting [4] is 93 % of control, the T/C under setting [5] was 97 % of control and the T/C under setting [6] is 95 % of control.

In the case of `CCn1c(COc2ccc(Br)cc2)c(COC(=O)c2cccc(Cl)c2)c2ccccc21`, the T/C is, setting by setting: under setting [1], 94 % of control; under setting [2], 92 % of control; under setting [3], 94 % of control.

`CC1(C)CCC2(CC1)CC(=O)OC(=O)C2`: the T/C (endpoint: mean survival time, dose: 100.0 mg/kg/injection, schedule: Q01DX001 (ip), vehicle: saline with Tween-80) is 90 % of control; the T/C (endpoint: mean survival time, dose: 200.0 mg/kg/injection, schedule: Q01DX001 (ip), vehicle: saline with Tween-80) is 87 % of control; the T/C (endpoint: mean survival time, dose: 400.0 mg/kg/injection, schedule: Q01DX001 (ip), vehicle: saline with Tween-80) is 92 % of control.

Take `O=C(OC1(c2c(F)c(F)c(F)c(F)c2F)C2C=CC1CC2)c1ccc([N+](=O)[O-])cc1` (stereo unspecified): the T/C under setting [7] was 102 % of control; the T/C under setting [8] is 105 % of control; the T/C under setting [9] is 98 % of control; the T/C (endpoint: mean survival time, dose: 400.0 mg/kg/injection, schedule: Q04DX002 (ip), vehicle: saline with Tween-80) was 90 % of control.

As to `CC(=O)N(O)CCCCCNC(=O)CCC(=O)N(O)CCCCCNC(=O)CCC(=O)N(O)CCCCCN`, the T/C runs as follows: (endpoint: mean survival time, dose: 125.0 mg/kg/injection, schedule: Q03HX024 (ip), vehicle: water) 102 % of control; (endpoint: mean survival time, dose: 188.0 mg/kg/injection, schedule: Q03HX024 (ip), vehicle: water) 97 % of control; (endpoint: mean survival time, dose: 280.0 mg/kg/injection, schedule: Q03HX024 (ip), vehicle: water) 104 % of control.

As to `COc1ccc(NC(=O)Oc2ccc(C3CCCCC3)cc2)cc1`, the T/C runs as follows: (endpoint: mean survival time, dose: 25.0 mg/kg/injection, schedule: Q01DX009 (ip), vehicle: saline with Tween-80) 97 % of control; (endpoint: mean survival time, dose: 25.0 mg/kg/injection, schedule: Q04DX002 (ip), vehicle: saline with Tween-80) 104 % of control; (endpoint: mean survival time, dose: 50.0 mg/kg/injection, schedule: Q01DX009 (ip), vehicle: saline with Tween-80) 93 % of control; under setting [7], 104 % of control; under setting [1], 89 % of control; under setting [8], 101 % of control. Under setting [9], the T/C is 108 % of control.

In the case of `C/C(=N\NC(=S)N1CC2CCC(CC2)C1)c1cccc(C)n1`, the T/C was 103 % of control (endpoint: median survival time, dose: 3.12 mg/kg/injection, schedule: Q01DX005 (ip), vehicle: saline with Tween-80); 108 % of control (endpoint: median survival time, dose: 6.25 mg/kg/injection, schedule: Q01DX005 (ip), vehicle: saline with Tween-80); 119 % of control (endpoint: median survival time, dose: 12.5 mg/kg/injection, schedule: Q01DX005 (ip), vehicle: saline with Tween-80); 102 % of control and 108 % of control (endpoint: median survival time, dose: 25.0 mg/kg/injection, schedule: Q01DX005 (ip), vehicle: saline with Tween-80).

With `CC[P+]1(c2ccccc2)CCCc2ccc3ccccc3c21` (stereo unspecified), the T/C (endpoint: mean survival time, dose: 12.5 mg/kg/injection, schedule: Q04DX003 (ip), vehicle: saline) is 117 % of control and the T/C (endpoint: mean survival time, dose: 25.0 mg/kg/injection, schedule: Q04DX003 (ip), vehicle: saline) is 110 % of control.

As to `COC(=O)c1ccc(OC(=O)Nc2ccc(N(CCCl)CCCl)cc2)cc1`, under “endpoint: mean survival time, dose: 50.0 mg/kg/injection, schedule: Q01DX001 (ip), vehicle: Klucel (hydroxypropylcellulose) (HPC)”, the T/C is 95 % of control.

For the compound `Cn1ccc(=Nc2ccc(NC(=O)c3ccc(N=c4ccn(C)c5ccc([N+](=O)[O-])cc45)cc3)cc2)cc1`, the T/C (endpoint: mean survival time, dose: 1.56 mg/kg/injection, schedule: Q01DX009 (ip), vehicle: water) is 106 % of control; the T/C (endpoint: mean survival time, dose: 3.13 mg/kg/injection, schedule: Q01DX009 (ip), vehicle: water) is 112 % of control; the T/C (endpoint: mean survival time, dose: 6.25 mg/kg/injection, schedule: Q01DX009 (ip), vehicle: water) is 124 % of control; the T/C (endpoint: mean survival time, dose: 12.5 mg/kg/injection, schedule: Q01DX009 (ip), vehicle: water) was 181 % of control; the T/C (endpoint: mean survival time, dose: 25.0 mg/kg/injection, schedule: Q01DX009 (ip), vehicle: water) is 227 % of control.

For the compound `c1ccc(/C(=N\Nc2nc3ccccc3s2)c2ccncc2)cc1`, the T/C is, setting by setting: (endpoint: mean survival time, dose: 100.0 mg/kg/injection, schedule: Q04DX003 (ip), vehicle: Klucel (hydroxypropylcellulose) (HPC)) 92 % of control; (endpoint: mean survival time, dose: 200.0 mg/kg/injection, schedule: Q04DX003 (ip), vehicle: Klucel (hydroxypropylcellulose) (HPC)) 89 % of control; (endpoint: mean survival time, dose: 400.0 mg/kg/injection, schedule: Q04DX003 (ip), vehicle: Klucel (hydroxypropylcellulose) (HPC)) 92 % of control.

Consider `CCCN(CCC)S(=O)(=O)c1ccc(NC(=O)OC(CC)c2ccco2)cc1` (stereo unspecified), for which the T/C runs as follows: (endpoint: mean survival time, dose: 100.0 mg/kg/injection, schedule: Q01DX001 (ip), vehicle: saline) 94 % of control; (endpoint: mean survival time, dose: 200.0 mg/kg/injection, schedule: Q01DX001 (ip), vehicle: saline) 95 % of control; (endpoint: mean survival time, dose: 400.0 mg/kg/injection, schedule: Q01DX001 (ip), vehicle: saline) 94 % of control.
